Data as given in patent publication US20100298141A1, “SUBSTITUTED PYRIDINE N-OXIDE HERBICIDES” (E. I. DU PONT DE NEMOURS AND COMPANY, priority 2007, published 2010).

Assays:
barnyardgrass [1] = experiment: Test A pre-/postemergence greenhouse test; type: in vivo, Echinochloa crus-galli; settings: for Barnyardgrass plant response rating: 0 to 100 scale; for Plant response rating, Barnyardgrass: 0 to 100 scale where 0 is no effect and 100 is complete control
Procedure, shortened: (§1)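 Two application timings were run side by side in the greenhouse. Before emergence, compound went onto the soil surface of loam–sand pots as a directed spray; after emergence, plants at 2–10 cm and the one- to two-leaf stage were treated. Visual injury versus controls was rated at approximately day ten.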

pigweed = experiment: Test C pre-/postemergence test; type: in vivo, Amaranthus retroflexus; settings: Preemergence; for Pigweed plant response rating: 62 g ai/ha, scale 0 to 100; for Plant response rating, Pigweed: 31 g ai/ha, scale 0 to 100 (0 no effect, 100 complete control)
Procedure, shortened: (§2)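 Test chemicals were formulated with surfactant in a non-phytotoxic solvent and sprayed both on freshly planted seeds (preemergence) and on 1- to 4-leaf plants of 2–18 cm (postemergence). Flooded-paddy pots received compound directly into 3 cm of standing water, maintained for the test.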

green foxtail = experiment: Test C pre-/postemergence test; type: in vivo, Setaria viridis; settings: Preemergence; for Foxtail, Green plant response rating: 62 g ai/ha, scale 0 to 100; for Plant response rating, Foxtail, Green: 31 g ai/ha, scale 0 to 100 (0 no effect, 100 complete control); for Plant response rating (0 to 100), Foxtail, Green: 250 g ai/ha
Procedure, shortened: as §2

catchweed bedstraw = experiment: Test C pre-/postemergence test; type: in vivo, Galium aparine; settings: Preemergence; for Galium plant response rating: 62 g ai/ha, scale 0 to 100; for Plant response rating, Galium: 31 g ai/ha, scale 0 to 100 (0 no effect, 100 complete control); for Plant response rating (0 to 100), Galium: 250 g ai/ha
Procedure, shortened: as §2

blackgrass = experiment: Test C pre-/postemergence test; type: in vivo, Alopecurus myosuroides; settings: for Plant response rating, Blackgrass: 31 g ai/ha, scale 0 to 100 (0 no effect, 100 complete control); for Plant response rating (0 to 100), Blackgrass: 250 g ai/ha
Procedure, shortened: as §2

giant foxtail = experiment: Test A pre-/postemergence greenhouse test; type: in vivo, Setaria faberi; settings: for Foxtail, Giant plant response rating: 0 to 100 scale; for Plant response rating, Foxtail, Giant: 0 to 100 scale where 0 is no effect and 100 is complete control
Procedure, shortened: as §1

barnyardgrass [2] = experiment: Test C flooded paddy test; type: in vivo, Echinochloa crus-galli; settings: Flood
Procedure, shortened: (§3)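 Flooded 3 cm over soil; compound into paddy water; depth kept constant. Greenhouse 13–15 d.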

common ragweed = experiment: Test C pre-/postemergence test; type: in vivo, Ambrosia elation; settings: Preemergence; for Ragweed plant response rating: 62 g ai/ha, scale 0 to 100; for Plant response rating, Ragweed: 31 g ai/ha, scale 0 to 100 (0 no effect, 100 complete control)
Procedure, shortened: as §2

Surinam grass = experiment: Test C pre-/postemergence test; type: in vivo, Brachiaria decumbens; settings: Preemergence; for Surinam Grass plant response rating: 62 g ai/ha, scale 0 to 100; for Plant response rating, Surinam Grass: 31 g ai/ha, scale 0 to 100 (0 no effect, 100 complete control)
Procedure, shortened: as §2

downy brome = experiment: Test C pre-/postemergence test; type: in vivo, Bromus tectorum; settings: for Plant response rating, Bromegrass, Downy: 31 g ai/ha, scale 0 to 100 (0 no effect, 100 complete control); for Plant response rating (0 to 100), Bromegrass, Downy: 250 g ai/ha
Procedure, shortened: as §2

duck salad = experiment: Test C flooded paddy test; type: in vivo, Heteranthera limosa; settings: Flood
Procedure, shortened: as §3

velvetleaf [3] = experiment: Test A pre-/postemergence greenhouse test; type: in vivo, Abutilon theophrasti; settings: for Velvetleaf plant response rating: 0 to 100 scale; for Plant response rating, Velvetleaf: 0 to 100 scale where 0 is no effect and 100 is complete control
Procedure, shortened: as §1

velvetleaf [4] = experiment: Test C pre-/postemergence test; type: in vivo, Abutilon theophrasti; settings: Preemergence; for Velvetleaf plant response rating: 62 g ai/ha, scale 0 to 100; for Plant response rating, Velvetleaf: 31 g ai/ha, scale 0 to 100 (0 no effect, 100 complete control)
Procedure, shortened: as §2

crabgrass = experiment: Test A pre-/postemergence greenhouse test; type: in vivo, Digitaria sanguinalis; settings: for Crabgrass, Large plant response rating: 0 to 100 scale; for Plant response rating, Crabgrass, Large: 0 to 100 scale where 0 is no effect and 100 is complete control
Procedure, shortened: as §1

woolly cupgrass = experiment: Test C pre-/postemergence test; type: in vivo, Eriochloa villosa; settings: Preemergence; for Cupgrass, Woolly plant response rating: 62 g ai/ha, scale 0 to 100; for Plant response rating, Cupgrass, Woolly: 31 g ai/ha, scale 0 to 100 (0 no effect, 100 complete control)
Procedure, shortened: as §2

lambsquarters = experiment: Test C pre-/postemergence test; type: in vivo, Chenopodium album; settings: Preemergence; for Lambsquarters plant response rating: 62 g ai/ha, scale 0 to 100; for Plant response rating, Lambsquarters: 31 g ai/ha, scale 0 to 100 (0 no effect, 100 complete control)
Procedure, shortened: as §2

soybean = experiment: Test C pre-/postemergence test; type: in vivo, Glycine max; settings: Preemergence; for Soybean plant response rating: 62 g ai/ha, scale 0 to 100; for Plant response rating, Soybean: 31 g ai/ha, scale 0 to 100 (0 no effect, 100 complete control)
Procedure, shortened: as §2

[5] = Postemergence, 125 g ai/ha, 0 is no effect, 100 is complete control
[6] = Postemergence, 500 g ai/ha, 0 is no effect, 100 is complete control
[7] = Preemergence, 125 g ai/ha, 0 no effect, 100 complete control
[8] = 62 g ai/ha, Preemergence, scale 0 to 100
[9] = preemergence, 125 g ai/ha, scale 0 (no effect) to 100 (complete control)
[10] = 31 g ai/ha, scale 0 to 100 (0 no effect, 100 complete control)
[11] = 62 g ai/ha, scale 0 to 100, 0 no effect, 100 complete control, 13 to 15 days
[12] = 125 g ai/ha, scale 0 to 100, 0 no effect, 100 complete control, 13 to 15 days
[13] = 250 g ai/ha, scale 0 to 100 (0 no effect, 100 complete control)

Cc1cc[n+]([O-])c(S(=O)(=O)C(Cl)c2c(C(F)(F)F)nn(C)c2Cl)c1 (racemic) [Compound 22]
Barnyardgrass plant response rating (barnyardgrass [1]; [5]): 40 | Barnyardgrass plant response rating (barnyardgrass [1]; [6]): 80 | Barnyardgrass plant response rating (barnyardgrass [1]; [7]): 90 | Plant response rating, Barnyardgrass (barnyardgrass [1]; Preemergence, 500 g ai/ha): 100 | Pigweed plant response rating (pigweed): 100 | Plant response rating, Pigweed (pigweed): 100 | Foxtail, Green plant response rating (green foxtail): 100 | Plant response rating, Foxtail, Green (green foxtail): 100 | Plant response rating (0 to 100), Foxtail, Green (green foxtail): 100 | Galium plant response rating (catchweed bedstraw): 100 | Plant response rating, Galium (catchweed bedstraw): 95 | Plant response rating (0 to 100), Galium (catchweed bedstraw): 100 | Blackgrass plant response rating (blackgrass; [8]): 95 | Plant response rating, Blackgrass (blackgrass; Preemergence): 55 | Plant response rating (0 to 100), Blackgrass (blackgrass; Preemergence): 98 | Blackgrass plant response rating (blackgrass; [9]): 95 | Foxtail, Giant plant response rating (giant foxtail; [5]): 50 | Foxtail, Giant plant response rating (giant foxtail; [6]): 80 | Foxtail, Giant plant response rating (giant foxtail; [7]): 100 | Plant response rating, Foxtail, Giant (giant foxtail; Preemergence, 500 g ai/ha): 100 | Plant response rating, Barnyardgrass (barnyardgrass [2]; [10]): 10 | Plant response rating, Barnyardgrass (barnyardgrass [2]; [11]): 20 | Plant response rating, Barnyardgrass (barnyardgrass [2]; [12]): 80 | Plant response rating, Barnyardgrass (barnyardgrass [2]; [13]): 85 | Ragweed plant response rating (common ragweed): 80 | Plant response rating, Ragweed (common ragweed): 0 | Surinam Grass plant response rating (Surinam grass): 60 | Plant response rating, Surinam Grass (Surinam grass): 10 | Bromegrass, Downy plant response rating (downy brome; [8]): 0 | Plant response rating, Bromegrass, Downy (downy brome; Preemergence): 0 | Plant response rating (0 to 100), Bromegrass, Downy (downy brome; Preemergence): 0 | Bromegrass, Downy plant response rating (downy brome; [9]): 0 | Plant response rating, Ducksalad (duck salad; [10]): 20 | Plant response rating, Ducksalad (duck salad; [11]): 80 | Plant response rating, Ducksalad (duck salad; [12]): 85 | Plant response rating, Ducksalad (duck salad; [13]): 90 | Velvetleaf plant response rating (velvetleaf [3]; [5]): 0 | Velvetleaf plant response rating (velvetleaf [3]; [6]): 40 | Velvetleaf plant response rating (velvetleaf [3]; [7]): 10 | Plant response rating, Velvetleaf (velvetleaf [3]; Preemergence, 500 g ai/ha): 60 | Velvetleaf plant response rating (velvetleaf [4]): 0 | Plant response rating, Velvetleaf (velvetleaf [4]): 0 | Crabgrass, Large plant response rating (crabgrass; [5]): 40 | Crabgrass, Large plant response rating (crabgrass; [6]): 80 | Crabgrass, Large plant response rating (crabgrass; [7]): 90 | Plant response rating, Crabgrass, Large (crabgrass; Preemergence, 500 g ai/ha): 90 | Cupgrass, Woolly plant response rating (woolly cupgrass): 100 | Plant response rating, Cupgrass, Woolly (woolly cupgrass): 60 | Lambsquarters plant response rating (lambsquarters): 100 | Plant response rating, Lambsquarters (lambsquarters): 0 | Soybean plant response rating (soybean): 0 | Plant response rating, Soybean (soybean): 0

Cn1nc(C(F)(F)F)c(C[S+]([O-])c2cc(C(C)(C)C)cc[n+]2[O-])c1OC(F)F (racemic) [Compound 24]
Barnyardgrass plant response rating (barnyardgrass [1]; [5]): 30 | Barnyardgrass plant response rating (barnyardgrass [1]; [6]): 50 | Barnyardgrass plant response rating (barnyardgrass [1]; [7]): 60 | Plant response rating, Barnyardgrass (barnyardgrass [1]; Preemergence, 500 g ai/ha): 100 | Pigweed plant response rating (pigweed): 100 | Plant response rating, Pigweed (pigweed): 100 | Foxtail, Green plant response rating (green foxtail): 70 | Plant response rating, Foxtail, Green (green foxtail): 10 | Plant response rating (0 to 100), Foxtail, Green (green foxtail): 100 | Galium plant response rating (catchweed bedstraw): 98 | Plant response rating, Galium (catchweed bedstraw): 0 | Plant response rating (0 to 100), Galium (catchweed bedstraw): 100 | Blackgrass plant response rating (blackgrass; [8]): 20 | Plant response rating, Blackgrass (blackgrass; Preemergence): 20 | Plant response rating (0 to 100), Blackgrass (blackgrass; Preemergence): 100 | Blackgrass plant response rating (blackgrass; [9]): 50 | Foxtail, Giant plant response rating (giant foxtail; [5]): 30 | Foxtail, Giant plant response rating (giant foxtail; [6]): 70 | Foxtail, Giant plant response rating (giant foxtail; [7]): 100 | Plant response rating, Foxtail, Giant (giant foxtail; Preemergence, 500 g ai/ha): 100 | Plant response rating, Barnyardgrass (barnyardgrass [2]; [10]): 0 | Plant response rating, Barnyardgrass (barnyardgrass [2]; [11]): 30 | Plant response rating, Barnyardgrass (barnyardgrass [2]; [12]): 30 | Plant response rating, Barnyardgrass (barnyardgrass [2]; [13]): 35 | Ragweed plant response rating (common ragweed): 70 | Plant response rating, Ragweed (common ragweed): 0 | Surinam Grass plant response rating (Surinam grass): 40 | Plant response rating, Surinam Grass (Surinam grass): 20 | Bromegrass, Downy plant response rating (downy brome; [8]): 50 | Plant response rating, Bromegrass, Downy (downy brome; Preemergence): 10 | Plant response rating (0 to 100), Bromegrass, Downy (downy brome; Preemergence): 65 | Bromegrass, Downy plant response rating (downy brome; [9]): 50 | Plant response rating, Ducksalad (duck salad; [10]): 0 | Plant response rating, Ducksalad (duck salad; [11]): 60 | Plant response rating, Ducksalad (duck salad; [12]): 80 | Plant response rating, Ducksalad (duck salad; [13]): 85 | Velvetleaf plant response rating (velvetleaf [3]; [5]): 40 | Velvetleaf plant response rating (velvetleaf [3]; [6]): 60 | Velvetleaf plant response rating (velvetleaf [3]; [7]): 70 | Plant response rating, Velvetleaf (velvetleaf [3]; Preemergence, 500 g ai/ha): 100 | Velvetleaf plant response rating (velvetleaf [4]): 100 | Plant response rating, Velvetleaf (velvetleaf [4]): 55 | Crabgrass, Large plant response rating (crabgrass; [5]): 0 | Crabgrass, Large plant response rating (crabgrass; [6]): 60 | Crabgrass, Large plant response rating (crabgrass; [7]): 90 | Plant response rating, Crabgrass, Large (crabgrass; Preemergence, 500 g ai/ha): 100 | Cupgrass, Woolly plant response rating (woolly cupgrass): 60 | Plant response rating, Cupgrass, Woolly (woolly cupgrass): 40 | Plant response rating (0 to 100), Cupgrass, Woolly (woolly cupgrass; 250 g ai/ha): 100 | Lambsquarters plant response rating (lambsquarters): 100 | Plant response rating, Lambsquarters (lambsquarters): 85 | Soybean plant response rating (soybean): 85 | Plant response rating, Soybean (soybean): 0
